Reference: ChEMBL document CHEMBL5338730, “Metabolism-Guided Selective Androgen Receptor Antagonists: Design, Synthesis, and Biological Evaluation for Activity against Enzalutamide-Resistant Prostate Cancer” (J Med Chem, 2023)

Key:
in vitro = details: mouse, microsomes
Description: Half life in mouse liver microsomes at 50 uM measured for 60 mins in presence of NADP+

[1] = mouse, microsomes, 1 h, 50 µM

With `C[C@](O)(CS(=O)(=O)c1ccc(F)cc1)C(=O)Nc1ccc(C#N)c(C(F)(F)F)c1` [(R)-BICALUTAMIDE] as the molecule, how does the half-life at 1 h, 50 µM (in vitro) read?
The half-life at 1 h, 50 µM was 10 h.

With `C[C@](O)(COc1ccc(C#N)cc1)C(=O)Nc1ccc(C#N)c(C(F)(F)F)c1` [ENOBOSARM] as the molecule, how does the CLH [1] read?
Its CLH is 1400 µL/min/mg.
